For 8 compounds, ED50 and LD50 results are on record in ChEMBL document CHEMBL1141916, “Synthesis and anticonvulsant activity of new 2-substituted-5-(2-benzyloxyphenyl)-1,3,4-oxadiazoles” (Bioorg Med Chem Lett, 2005).

Data set [1] is filed under the species Mus musculus. As to the kind of experiment: Effective dose against pentylenetetrazole (PTZ) induced anticonvulsant activity in mice. Type of data set: functional.
For data set [2], the species on record is Mus musculus. Nature of the data set: Effective dose against maximal electroshock (MES) induced convulsants in mice. Type of data set: functional.
Data set [3] is described as follows: Lethal dose tested against mice. Type of data set: toxicity. Conditions: mouse, in vivo.
The species entered for data set [4] is Mus musculus. As to the kind of experiment: animal or person.
Description: Effective dose against pentylenetetrazole (PTZ) induced anticonvulsant activity in presence of flumazenil at 10 mg/kg in mice; Range: 1.1-2
Data set [5] is filed under the species Mus musculus. Nature of the data set: animal or person. The source holds these as a separate data set.
Data set [6] has as its system Mus musculus. Nature of the data set: Effective dose against pentylenetetrazole (PTZ) induced anticonvulsant activity in presence of flumazenil at 10 mg/kg in mice; range: 1.5-4.1. It is filed as functional.

As usually defined, the ED50 is the dose at which the effect has come halfway, by size or by number of responders. One may read the LD50 as the dose expected to kill half of the subjects tested. The low end stands for greater toxicity, the high end for lower toxicity. Consider `Nc1nnc(-c2ccccc2OCc2ccccc2)o1`, for which the ED50 in the data set filed under Mus musculus [1] is 85.2 mg/kg; in the data set filed under Mus musculus [2], 63.2 mg/kg. The same compound registered a 50% lethal dose (LD50) in data set [3] of more than 300 mg/kg.

Turning to `CN1C(=O)CN=C(c2ccccc2)c2cc(Cl)ccc21` [DIAZEPAM], the ED50 in the data set listed under Mus musculus [1] came out at 1.4 mg/kg; in the data set listed under Mus musculus [2] it was 1.8 mg/kg; in the data set listed under Mus musculus [4], 2 mg/kg; in the data set listed under Mus musculus [5], 2.6 mg/kg.

As to `CSc1nnc(-c2ccccc2OCc2ccccc2)o1`, the ED50 in the data set filed under Mus musculus [1] was 91.2 mg/kg; in the data set filed under Mus musculus [2] it was more than 100 mg/kg. In data set [3], this compound had a median lethal dose (LD50) of more than 300 mg/kg.

`CCSc1nnc(-c2ccccc2OCc2ccccc2)o1`: the ED50 in the data set listed under Mus musculus [1] and in the data set filed under Mus musculus [2] was more than 100 mg/kg throughout. In addition, the LD50 in data set [3] is more than 300 mg/kg.

For the compound `Sc1nnc(-c2ccccc2OCc2ccccc2)o1`, the 50% effective dose (ED50) was more than 100 mg/kg in the data set filed under Mus musculus [1] and not below 100 mg/kg in the data set listed under Mus musculus [2]. The LD50 in data set [3] is more than 300 mg/kg.

On to `Nc1nnc(-c2ccccc2OCc2ccc(F)cc2)o1`, for which the ED50 was 2.5 mg/kg in the data set listed under Mus musculus [1], 3.3 mg/kg in the data set listed under Mus musculus [2] and 2.5 mg/kg in the data set with Mus musculus [6]. The LD50 in data set [3] was more than 300 mg/kg.

Regarding `c1ccc(COc2ccccc2-c2nnc(SCc3ccccc3)o2)cc1`, the ED50 in the data set listed under Mus musculus [1] and in the data set filed under Mus musculus [2] was more than 100 mg/kg throughout. For the same compound, the LD50 in data set [3] was more than 300 mg/kg.

`Nc1nnc(-c2ccccc2OCc2ccc(Cl)cc2)o1`: the ED50 in the data set listed under Mus musculus [1] and in the data set listed under Mus musculus [2] was more than 100 mg/kg in each case. In data set [3], this compound gave an LD50 of more than 300 mg/kg.
